Measurements taken from paper PMC7997574, “Lead Optimization of Benzoxazolone Carboxamides as Orally Bioavailable and CNS Penetrant Acid Ceramidase Inhibitors” (Journal of Medicinal Chemistry, 2020).
Values after ≈ are worked out from the molar mass of the structure shown. Counter-ions that a name gives are not always drawn. Like-named read-outs stand apart in the source and are kept apart here. One block for each molecule: values may come before it.

Legend:
AC = target: T1, AC (Homo sapiens, UniProt Q13510); assay: Fluorogenic hAC assay on hAC-enriched lysate of HEK293 cells; type: biochemical; set-up: expressed in transfected cells
T1 sequence (Q13510 22-395): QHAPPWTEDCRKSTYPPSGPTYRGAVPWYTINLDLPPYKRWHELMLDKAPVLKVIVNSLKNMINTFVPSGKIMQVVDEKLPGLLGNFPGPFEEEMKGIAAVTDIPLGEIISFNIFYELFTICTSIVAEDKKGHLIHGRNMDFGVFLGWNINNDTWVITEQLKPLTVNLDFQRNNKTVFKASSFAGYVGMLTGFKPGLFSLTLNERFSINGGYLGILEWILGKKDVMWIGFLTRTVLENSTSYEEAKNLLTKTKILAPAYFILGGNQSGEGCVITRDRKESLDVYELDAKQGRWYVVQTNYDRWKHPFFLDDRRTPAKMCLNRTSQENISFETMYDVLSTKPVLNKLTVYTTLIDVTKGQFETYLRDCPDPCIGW
Description: HEK293 cells stably expressing hAC were grown in Dulbecco’s modified Eagle medium (DMEM) containing 10% FBS, 1% glutamine, 1 mM sodium pyruvate, and 500 μg mL^–1 G418. Cells were harvested, and pellets were stored at −80 °C until lysosomal-enriched lysate preparation. Cells were suspended in 20 mM Tris HCl (pH 7.5) with 0.32 M sucrose, sonicated, and centrifuged at 800 × g for 30 min at 4 °C. Supernatants were then centrifuged at 12000 × g for 30 min at 4 °C. Pellets were resuspended in PBS (pH 7.4) and subjected to three freeze–thaw cycles at −80 °C. The suspension was finally centrifuged at 105000 × g for 1 h at 4 °C, and protein concentration was measured in the supernatant with the bicinchoninic acid based protein assay. This hAC-enriched preparation allowed us to further optimize the enzymatic assay and to use small amounts of lysate (2 μg per well) at a 5 μM substrate (Rbm14–12) around its KM (KM = 5.0 μM).
The assay was performed in Optiplate 96-well black plates, with each reaction well containing a mixture of 25 mM NaOAc buffer (pH 4.5) and a fixed amount of protein (2 μg) in a volume of 85 μL. After 10 min of preincubation with test compounds (diluted 20× from DMSO stock solutions at different concentrations), the fluorogenic probe was added (diluted 40× from EtOH stock solution, final concentration 5 μM). After 3 h of incubation at 37 °C, reactions were stopped with 50 μL of MeOH and 100 μL of a 2.5 mg mL^–1 NaIO4 fresh solution in 100 mM glycine/NaOH buffer (pH 10.6). The plates were further incubated for 2 h at 37 °C in the dark, and fluorescence intensities were measured at excitation/emission wavelengths of 355/460 nm. Negative control samples consisted of the same incubation mixture in the absence of protein-enriched extracts. Data were plotted as a function of compound concentrations. IC50 values were calculated by nonlinear regression analysis using GraphPad Prism 5 (GraphPad Software Inc., CA, USA) applying a standard slope curve fitting. The reported IC50 values are the mean of at least three independent experiments performed in three technical replicates.

[1] = Aqueous kinetic solubility assay; type: physicochemical; conditions: PBS, pH 7.4
Description: The aqueous kinetic solubility was determined from a 10 mM MeCN stock solution of test compound in Phosphate-Buffered Saline (PBS) at pH 7.4. The study was performed by incubation of an aliquot of 10 mM MeCN stock solution in PBS (pH 7.4) at a target concentration of 250 μM. The incubation was carried out under shaking at 25 °C for 1 h followed by centrifugation at 21100 × g for 30 min. The supernatant was analyzed by UPLC/MS for the quantification of the dissolved compound (in μM) by UV at a specific wavelength (215 nm). […] The UPLC/MS analyses were performed on a Waters ACQUITY UPLC/MS system consisting of a single quadrupole detector (SQD) Mass Spectrometer (MS) equipped with an Electrospray Ionization (ESI) interface and a Photodiode Array Detector (PDA). The PDA range was 210–400 nm. ESI in positive mode was used in the mass scan range of 100–650 Da. The analyses were run on an ACQUITY UPLC BEH C18 column (50 × 2.1 mm ID, particle size 1.7 μm) with a VanGuard BEH C18 precolumn (5 × 2.1 mm ID, particle size 1.7 μm), using 10 mM NH4OAc in H2O at pH 5 adjusted with AcOH (A) and 10 mM NH4OAc in MeCN/H2O (95:5) at pH 5 (B) as the mobile phase. Values are reported as mean values of ≥2 experiments performed.

[2] = In vitro plasma stability study; type: in vitro ADME; conditions: mouse plasma; read-out: m-plasma t1/2
Description: Freshly prepared 10 mM MeCN stock solution of test compound was diluted 50-fold with DMSO/H2O (1:1) and incubated at 37 °C for 2 h with mouse plasma added in 5% DMSO (preheated at 37 °C for 10 min). The final concentration was 2 μM. At each time point (0, 5, 15, 30, 60, and 120 min), 50 μL of incubation mixture was diluted with 200 μL of cold MeCN spiked with 200 nM internal standard followed by centrifugation at 3300 × g for 20 min. The supernatant was further diluted with H2O (1:1) for analysis. The concentration of test compound was quantified by LC/MS/MS on a Waters ACQUITY UPLC/MS TQD system consisting of a TQD MS equipped with an ESI interface. The analyses were run on an ACQUITY UPLC BEH C18 (50 × 2.1 mm ID, particle size 1.7 μm) with a VanGuard BEH C18 precolumn (5 × 2.1 mm ID, particle size 1.7 μm) at 40 °C. For each compound, the appropriate mobile phase was chosen. ESI was applied in positive mode. The response factors, calculated on the basis of the internal standard peak area, were plotted over time. When possible, response vs time profiles were fitted with Prism (GraphPad Software, Inc., USA) to estimate compound t1/2 in plasma. Values are the mean of at least two independent experiments performed in two technical replicates.

[3] = In vitro microsomal stability study; type: in vitro ADME; conditions: mouse liver microsomes; for m-LM [% at 60 min]: % remaining at 60 min; for half-life at 4.6 μM: pH 7.4, read-out: m-LM t1/2
Description: Freshly prepared 10 mM MeCN stock solution of test compound was preincubated at 37 °C for 15 min with mouse liver microsomes added in 0.1 M Tris HCl buffer (pH 7.4). The final concentration was 4.6 μM. After preincubation, the cofactors (NADPH, G6P, G6PDH, and MgCl2 predissolved in 0.1 M Tris HCl) were added to the incubation mixture, and the incubation was continued at 37 °C for 1 h. At each time point (0, 5, 15, 30, and 60 min), 30 μL of incubation mixture was diluted with 200 μL of cold MeCN spiked with 200 nM internal standard followed by centrifugation at 3300 × g for 15 min. The supernatant was further diluted with H2O (1:1) for analysis. The concentration of the test compound was quantified by LC/MS/MS on a Waters ACQUITY UPLC/MS TQD system consisting of a TQD MS equipped with an ESI interface. The analyses were run on an ACQUITY UPLC BEH C18 (50 × 2.1 mm ID, particle size 1.7 μm) with a VanGuard BEH C18 precolumn (5 × 2.1 mm ID, particle size 1.7 μm) at 40 °C. For each compound, the appropriate mobile phase was chosen. ESI was applied in positive mode. The percentage of test compound remaining at each time point relative to t = 0 was calculated. t1/2 was determined by a one-phase decay equation using a nonlinear regression of compound concentration vs time. Values are the mean of at least two independent experiments performed in two technical replicates.

[4] = supplementary csv, read-out: hAC, IC50
[5] = hAC expressed in HEK-293 cells, read-out: hAC IC50 (μM)±SD

IC50 (AC; [4]): 2.6 ± 0.176 µM
SMILES: COCCCNC(=O)n1c(=O)oc2cc(-c3ccc(F)cc3)ccc21 [2g, 6-(4-Fluorophenyl)-N-(3-methoxypropyl)-2-oxo-1,3-benzoxazole-3-carboxamide]

solubility at 1 h [1]: 240 µM (≈ 82.9 µg/mL)
half-life at 2 µM [2]: 1.25 h
half-life at 2 μM [2]: > 1 h
m-LM [% at 60 min] [3]: >60 [60%]
half-life at 4.6 μM [3]: > 1 h
IC50 (AC; [5]): 0.396 ± 0.075 µM
SMILES: CCCCCNC(=O)n1c(=O)oc2cc(C3CCN(C)CC3)ccc21 [22k, 6-(1-Methyl-4-piperidyl)-2-oxo-N-pentyl-1,3-benzoxazole-3-carboxamide]

IC50 (AC; [5]): 0.068 ± 0.022 µM
SMILES: O=C(NCCCCc1ccccc1)n1c(=O)oc2cc(C3CCOCC3)ccc21 [22b, 2-Oxo-N-(4-phenylbutyl)-6-tetrahydropyran-4-yl-1,3-benzoxazole-3-carboxamide]

IC50 (AC; [4]): 0.293 ± 0.107 µM
SMILES: CC(=O)N1CCc2oc(=O)n(C(=O)NCCCCc3ccccc3)c2C1 [12e, 5-Acetyl-2-oxo-N-(4-phenylbutyl)-6,7-dihydro-4H-oxazolo[4,5-c]pyridine-3-carboxamide]

solubility at 1 h [1]: 150 µM
half-life at 2 µM [2]: 1 h
m-LM [% at 60 min] [3]: 70%
half-life at 4.6 μM [3]: > 1 h
IC50 (AC; [5]): 0.134 ± 0.014 µM
SMILES: Cl.O=C(NCCCCc1ccccc1)n1c(=O)oc2cc(C3CCNCC3)ccc21 [22d, 2-Oxo-N-(4-phenylbutyl)-6-(4-piperidyl)-1,3-benzoxazole-3-carboxamide Hydrochloride]

SMILES: CN1CCC(c2ccc3[nH]c(=O)oc3c2)CC1 [21g, 6-(1-Methyl-4-piperidyl)-3H-1,3-benzoxazol-2-one]
inhibition of hAC (AC; tested at 1 and 10 μM): not able to inhibit hAC

IC50 (AC; [5]): 2.1 µM
SMILES: CCC(C)NC(=O)n1c(=O)oc2cc(C3CCN(C)CC3)ccc21 (stereo not shown) [22n, 6-(1-Methyl-4-piperidyl)-2-oxo-N-sec-butyl-1,3-benzoxazole-3-carboxamide]

IC50 (AC; [4]): 0.516 ± 0.165 µM
SMILES: CN1CCc2oc(=O)n(C(=O)NCCCCc3ccccc3)c2C1 [12c, 5-Methyl-2-oxo-N-(4-phenylbutyl)-6,7-dihydro-4H-oxazolo[4,5-c]pyridine-3-carboxamide Hydrochloride]

IC50 (AC; [4]): 0.436 ± 0.073 µM
SMILES: O=C(NCCCCc1ccccc1)n1c2c(oc1=O)CCN(Cc1ccccc1)C2 [12d, 5-Benzyl-2-oxo-N-(4-phenylbutyl)-6,7-dihydro-4H-oxazolo[4,5-c]pyridine-3-carboxamide]

solubility at 1 h [1]: < 1 µM
IC50 (AC; read-out: hAC IC50): 0.06 µM
SMILES: CCCCCNC(=O)n1c(=O)oc2cc(-c3ccc(F)cc3)ccc21 [2e, 6-(4-Fluorophenyl)-2-oxo-N-pentyl-1,3-benzoxazole-3-carboxamide]

IC50 (AC; [5]): 0.08 ± 0.017 µM
SMILES: O=C(NCCCCc1ccccc1)n1c(=O)oc2cc(N3CCCCC3)ccc21 [23a, 2-Oxo-N-(4-phenylbutyl)-6-piperidin-1-ium-1-yl-1,3-benzoxazole-3-carboxamide Hydrochloride]

IC50 (AC; [5]): 0.127 ± 0.037 µM
SMILES: CC(C)CN1CCN(c2ccc3c(c2)oc(=O)n3C(=O)NCCCCc2ccccc2)CC1 [23i, 6-(4-Isobutylpiperazin-1-Yl)-2-oxo-N-(4-phenylbutyl)-1,3-benzoxazole-3-carboxamide]

IC50 (AC; [5]): 1.05 ± 0.312 µM
SMILES: CCOCCNC(=O)n1c(=O)oc2cc(C3CCN(C)CC3)ccc21 [22l, N-(2-Ethoxyethyl)-6-(1-methyl-4-piperidyl)-2-oxo-1,3-benzoxazole-3-carboxamide]

IC50 (AC; [4]): 4.7 ± 6.04 µM
SMILES: O=C(NCCOCc1ccccc1)n1c(=O)oc2cc(-c3ccc(F)cc3)ccc21 [2d, N-(2-Benzyloxyethyl)-6-(4-fluorophenyl)-2-oxo-1,3-benzoxazole-3-carboxamide]

IC50 (AC; [5]): 0.211 ± 0.065 µM
SMILES: CC(C)N1CCN(c2ccc3c(c2)oc(=O)n3C(=O)NCCCCc2ccccc2)CC1 [23h, 6-(4-Isopropylpiperazin-1-yl)-2-oxo-N-(4-phenylbutyl)-1,3-benzoxazole-3-carboxamide]

IC50 (AC; [5]): > 10 µM
SMILES: O=C1C(=O)N(C(=O)NCCCCc2ccccc2)c2ccccc21 [8c, 2,3-Dioxo-N-(4-phenylbutyl)indoline-1-carboxamide]

IC50 (AC; [5]): > 10 µM
SMILES: O=C1Cc2ccccc2N1C(=O)NCCCCc1ccccc1 [8d, 2-Oxo-N-(4-phenylbutyl)indoline-1-carboxamide]

IC50 (AC; [4]): 2.3 µM
SMILES: CCOCCNC(=O)n1c(=O)oc2cc(-c3ccc(F)cc3)ccc21 [2f, N-(2-Ethoxyethyl)-6-(4-fluorophenyl)-2-oxo-1,3-benzoxazole-3-carboxamide]

IC50 (AC; [5]): 0.16 ± 0.014 µM
SMILES: O=C(NCCCCc1ccccc1)n1c(=O)oc2cc(N3CCS(=O)(=O)CC3)ccc21 [23c, 6-(1,1-Dioxo-1,4-thiazinan-4-yl)-2-oxo-N-(4-phenylbutyl)-1,3-benzoxazole-3-carboxamide]

IC50 (AC; [5]): 0.089 ± 0.054 µM
SMILES: O=C(NCCCCc1ccccc1)n1c(=O)oc2cc(C3CCCCC3)ccc21 [22a, 6-Cyclohexyl-2-oxo-N-(4-phenylbutyl)-1,3-benzoxazole-3-carboxamide]

IC50 (AC; [5]): 0.192 ± 0.087 µM
SMILES: O=C(NCCCCc1ccccc1)n1c(=O)oc2cc(N3CCOCC3)ccc21 [23b, 6-Morpholino-2-oxo-N-(4-phenylbutyl)-1,3-benzoxazole-3-carboxamide]
